Assay results: patent US12655116B2, “Substituted isophthalic acid diamides” (Bayer Aktiengesellschaft, priority 2020, dated 2026)

Tests used:
AMARE [1] = experiment: Post-emergence herbicidal action against AMARE; assay type: in vivo, Amaranthus retroflexus; conditions: visual assessment about 3 weeks after treatment, 100% = plants have died, 0% = like control plants
Summary of the method: (§1)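 Percent herbicidal action is rated by eye about 3 weeks after treatment against untreated controls, where 100% means dead plants and 0% means like controls. Plants in sandy loam are sprayed on green parts at the one-leaf stage with aqueous WP or EC preparations at 600 to 800 l/ha plus 0.2% wetting agent.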

POLCO [2] = experiment: Post-emergence herbicidal action against POLCO; assay type: in vivo, Polygonum convolvulus
Summary of the method: as §1

ABUTH [3] = experiment: Pre-emergence herbicidal action against ABUTH; assay type: in vivo, Abutilon theophrasti
Summary of the method: (§2)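 Seeds sown in sandy loam, soil-covered; compound sprayed on soil surface pre-emergence. Application: WP/EC, 600–800 l/ha, 0.2% wetting agent. Readout: visual % damage at 3 weeks.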

VIOTR [4] = experiment: Pre-emergence herbicidal action against VIOTR; assay type: in vivo, Viola tricolor
Summary of the method: as §2

AVEFA [5] = experiment: Pre-emergence herbicidal action against AVEFA; assay type: in vivo, Avena fatua; conditions: 80 g/ha, pre-emergence
Summary of the method: as §2

MATIN = experiment: Pre-emergence herbicidal action against MATIN; assay type: in vivo, Matricaria inodora
Summary of the method: as §2

STEME [6] = experiment: Post-emergence herbicidal action against STEME; assay type: in vivo, Stellaria media
Summary of the method: as §1

STEME [7] = experiment: Pre-emergence herbicidal action against STEME; assay type: in vivo, Stellaria media
Summary of the method: as §2

ECHCG [8] = experiment: Post-emergence herbicidal action against ECHCG; assay type: in vivo, Echinochloa crus-galli
Summary of the method: as §1

PHBPU = experiment: Post-emergence herbicidal action against PHBPU; assay type: in vivo, Pharbitis purpurea; conditions: dosage 20 g/ha
Summary of the method: as §1

DIGSA [9] = experiment: Post-emergence herbicidal action against DIGSA; assay type: in vivo, Digitaria sanguinalis
Summary of the method: as §1

SETVI [10] = experiment: Post-emergence herbicidal action against SETVI; assay type: in vivo, Setaria viridis; conditions: dosage 20 g/ha
Summary of the method: as §1

POLCO [11] = experiment: Pre-emergence herbicidal action against POLCO; assay type: in vivo, Polygonum convolvulus; conditions: dosage 80 g/ha
Summary of the method: as §2

SETVI [12] = experiment: Pre-emergence herbicidal action against SETVI; assay type: in vivo, Setaria viridis
Summary of the method: as §2

AMARE [13] = experiment: Pre-emergence herbicidal action against AMARE; assay type: in vivo, Amaranthus retroflexus
Summary of the method: as §2

VIOTR [14] = experiment: Post-emergence herbicidal action against VIOTR; assay type: in vivo, Viola tricolor; conditions: 20 g/ha
Summary of the method: as §1

HORMU = experiment: Pre-emergence herbicidal action against HORMU; assay type: in vivo, Hordeum murinum; conditions: pre-emergence
Summary of the method: as §2

ECHCG [15] = experiment: Pre-emergence herbicidal action against ECHCG; assay type: in vivo, Echinochloa crus-galli
Summary of the method: as §2

ALOMY = experiment: Pre-emergence herbicidal action against ALOMY; assay type: in vivo, Alopecurus myosuroides; conditions: 80 g/ha, pre-emergence, scored visually after 3 weeks vs untreated controls (100% = plants have died, 0% = like control plants)
Summary of the method: as §2

ABUTH [16] = experiment: Post-emergence herbicidal action against ABUTH; assay type: in vivo, Abutilon theophrasti; conditions: visual assessment about 3 weeks after treatment vs untreated controls
Summary of the method: as §1

DIGSA [17] = experiment: Pre-emergence herbicidal action against DIGSA; assay type: in vivo, Digitaria sanguinalis
Summary of the method: as §2

AVEFA [18] = experiment: Post-emergence herbicidal action against AVEFA; assay type: in vivo, Avena fatua; conditions: Avena fatua, 504 h, visual assessment about 3 weeks after treatment, 100% = plants have died, 0% = like control plants
Summary of the method: as §1

[19] = 80 g/ha, scored visually after 3 weeks vs untreated controls (100% = plants have died, 0% = like control plants)

CCNC(=O)c1c(C(F)(F)F)ccc(C(=O)Nc2nnc(C)o2)c1C [Example 6-26]
100%: Post-emergence action at 20 g/ha against AMARE in % (AMARE [1]; 20 g/ha) | Pre-emergence action against ABUTH (herbicidal activity) (ABUTH [3]; [19]) | Pre-emergence action against ABUTH (herbicidal activity in percent) (ABUTH [3]; dosage 20 g/ha, scored visually after 3 weeks vs untreated controls, 100% = plants have died, 0% = like control plants) | Pre-emergence action against VIOTR in % (VIOTR [4]; dosage 80 g/ha) | Pre-emergence action against STEME in % (STEME [7]; dosage 80 g/ha) | Pre-emergence action against POLCO in % (POLCO [11]) | Pre-emergence action against SETVI in % (SETVI [12]; dosage 80 g/ha) | Pre-emergence action against AMARE in % (AMARE [13]; 20 g/ha, scored visually after 3 weeks vs untreated controls, 100% = plants have died, 0% = like control plants) | Pre-emergence action against AMARE in % (AMARE [13]; [19]) | Post-emergence action against VIOTR in % (VIOTR [14]) | Pre-emergence action against ECHCG in % (ECHCG [15]; 80 g/ha) | Pre-emergence action against DIGSA in % (DIGSA [17]; dosage 20 g/ha) | Pre-emergence action against DIGSA in % (DIGSA [17]; dosage 80 g/ha)
80%: Post-emergence action against POLCO in % (POLCO [2]; dosage 20 g/ha) | Pre-emergence action against AVEFA in % (AVEFA [5]) | Pre-emergence action against MATIN in % (MATIN; dosage 20 g/ha) | Post-emergence action against STEME in % (STEME [6]; 20 g/ha) | Pre-emergence action against STEME in % (STEME [7]; dosage 20 g/ha) | Post-emergence action against ECHCG in % (ECHCG [8]; dosage 5 g/ha) | Post-emergence action against PHBPU in % (PHBPU) | Post-emergence action against SETVI in % (SETVI [10]) | Pre-emergence action against HORMU in % (HORMU; 80 g/ha) | Pre-emergence action against ALOMY (herbicidal activity) (ALOMY)
90%: Pre-emergence action against MATIN in % (MATIN; dosage 80 g/ha) | Post-emergence action against ECHCG in % (ECHCG [8]; dosage 20 g/ha) | Post-emergence action against DIGSA in % (DIGSA [9]; 5 g/ha) | Post-emergence action against DIGSA (DIGSA [9]; 20 g/ha) | Post-emergence action against ABUTH in % (ABUTH [16]; dosage 5 g/ha) | Post-emergence action against ABUTH in % (ABUTH [16]; dosage 20 g/ha)

CNC(=O)c1c(C(F)(F)F)ccc(C(=O)Nc2nnc(C)o2)c1SC [Example 6-58]
80%: pest or weed control at 20 g/ha (AVEFA [18]; 20 g/ha) | pest or weed control at 80 g/ha (MATIN; Tripleurospermum inodorum, 504 h, dosage 80 g/ha) | pest or weed control at 20 g/ha (STEME [6]; Stellaria media, 504 h, 20 g/ha) | pest or weed control at 80 g/ha (STEME [6]; Stellaria media, 504 h, 80 g/ha) | pest or weed control at 20 g/ha (DIGSA [9]; Digitaria sanguinalis, 504 h, 20 g/ha) | pest or weed control at 20 g/ha (ABUTH [16]; Abutilon theophrasti, 504 h, dosage 20 g/ha) | pest or weed control at 80 g/ha (ABUTH [16]; Abutilon theophrasti, 504 h, dosage 80 g/ha)
100%: pest or weed control at 80 g/ha (POLCO [2]; Fallopia convolvulus, 504 h, dosage 80 g/ha) | pest or weed control at 80 g/ha (ABUTH [3]; Abutilon theophrasti, 504 h, 80 g/ha, scored visually after 3 weeks vs untreated controls (100% = plants have died, 0% = like control plants)) | pest or weed control at 320 g/ha (ABUTH [3]; Abutilon theophrasti, 504 h, Dosage: 320 g/ha, scored visually after 3 weeks, 100% = plants have died, 0% = like control plants) | pest or weed control at 320 g/ha (MATIN; Tripleurospermum inodorum, 504 h, dosage 320 g/ha) | pest or weed control at 80 g/ha (SETVI [12]; Setaria viridis, 504 h, dosage 80 g/ha) | pest or weed control at 320 g/ha (SETVI [12]; Setaria viridis, 504 h, dosage 320 g/ha) | pest or weed control at 80 g/ha (AMARE [13]; Amaranthus retroflexus, 504 h, 80 g/ha, scored visually after 3 weeks vs untreated controls, 100% = plants have died, 0% = like control plants) | pest or weed control at 320 g/ha (AMARE [13]; Amaranthus retroflexus, 504 h, 320 g/ha, scored visually after 3 weeks, 100% = plants have died, 0% = like control plants) | pest or weed control at 320 g/ha (ECHCG [15]; Echinochloa crus-galli, 504 h, 320 g/ha) | pest or weed control at 80 g/ha (DIGSA [17]; Digitaria sanguinalis, 504 h, dosage 80 g/ha) | pest or weed control at 320 g/ha (DIGSA [17]; Digitaria sanguinalis, 504 h, dosage 320 g/ha)
90%: pest or weed control at 80 g/ha (AVEFA [18]; 80 g/ha) | pest or weed control at 80 g/ha (AMARE [1]; Amaranthus retroflexus, 504 h, 80 g/ha) | pest or weed control at 320 g/ha (VIOTR [4]; Viola tricolor, 504 h, dosage 320 g/ha) | pest or weed control at 80 g/ha (STEME [7]; Stellaria media, 504 h, dosage 80 g/ha) | pest or weed control at 320 g/ha (STEME [7]; Stellaria media, 504 h, dosage 320 g/ha) | pest or weed control at 20 g/ha (ECHCG [8]; Echinochloa crus-galli, 504 h, dosage 20 g/ha) | pest or weed control at 80 g/ha (ECHCG [8]; Echinochloa crus-galli, 504 h, dosage 80 g/ha) | pest or weed control at 80 g/ha (DIGSA [9]; Digitaria sanguinalis, 504 h, 80 g/ha) | pest or weed control at 320 g/ha (HORMU; Hordeum murinum, 504 h, 320 g/ha)
